Several values for one entry are separate records, joined by “and”; a condition that tells them apart may be missing. Equal values may be shown once. Read-outs that look alike come from different tables or passages of the source. One block for each molecule: values may come before it.
Legend:
XCR1 = molecular target: T1, XCR1 (Homo sapiens, UniProt P46094); assay: NanoBRET screen HiBiT-XCR1 in HEK293; format: binding
T1 construct: purchased Promega (in-house HiBiT-GPCR construct library, NanoBRET)
T1 sequence (P46094 1-333): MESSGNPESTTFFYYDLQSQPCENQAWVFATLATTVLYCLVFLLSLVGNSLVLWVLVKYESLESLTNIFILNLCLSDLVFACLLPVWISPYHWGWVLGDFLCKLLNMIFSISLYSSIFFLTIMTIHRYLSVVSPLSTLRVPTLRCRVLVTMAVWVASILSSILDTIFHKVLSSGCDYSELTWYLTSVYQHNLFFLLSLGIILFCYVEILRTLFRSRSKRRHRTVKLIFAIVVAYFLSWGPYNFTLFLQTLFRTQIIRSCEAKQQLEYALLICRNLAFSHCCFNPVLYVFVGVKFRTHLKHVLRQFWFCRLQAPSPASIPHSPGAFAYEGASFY
Method: Each tracer candidate was screened across the entire library of HiBiT-GPCR constructs using NanoBRET as the detection modality. As depicted in Figure 4A, the specificity of interactions was evaluated through decrease in BRET due to competitive displacement of a bound tracer by excess parental compound. Each tracer was analyzed for binding to each HiBiT-GPCR fusion in the absence and in the presence of competing parental compound. Briefly, HEK293 cells were transfected with HiBiT-GPCR constructs diluted into promoterless DNA to reduce expression and maximize translocation to the cell surface. Each tracer candidate was then screened at concentrations of 1 μM and 0.1 μM across cells expressing these fusions. Cells were treated for 1.5 h with tracer either alone or in the presence of 20 μM competing parental compound (i.e., control). BRET was measured upon addition of purified LgBiT and subsequent complementation with HiBiT genetically fused to a GPCR. The specificity of interactions was assessed through a decrease in BRET signal due to competitive displacement of the bound tracer. To further gauge the robustness of these interactions, the fold response over the control (i.e., BRETtracer/BRETcontrol) was calculated. We chose a 1.5-fold response, which translates to ≥7-fold signal over noise as the minimal threshold required to score an interaction as positive. […]. Below we highlight the screening results obtained for our exemplary fluorescent tracers based on Clozapine, Amitriptyline and AZD1283.
HiBiT-GPCR DNA constructs were diluted in 10 mM Tris pH 8 to a final concentration of 0.01 μg/μL, arrayed in 96-well plates and stored at −20 °C. For transfection, HEK293 cells were suspended in Opti-MEM (without phenol red) supplemented with 2% fetal bovine serum (Seradigm) and 100 units/mL penicillin–streptomycin (Gibco) at a final concentration of 220,000 cells/mL and dispensed into white 96-well plates at 90 μL/well. Subsequent transfections and screens were carried using an Agilent Bravo Automated Liquid Handling Platform. First, the 96-well HiBiT DNA arrays were diluted 25-fold in Opti-MEM (without serum or phenol red) to a final concentration of 0.0004 μg/μL and 20 μL of the diluted DNAs were transferred into new 96-well plates. Next, promoterless carrier DNA (1 μg/μL) was diluted 25-fold (0.04 μg/μL) and then dispensed into the diluted arrays at 20 μL/well. Following brief mixing, Viafect transfection reagent (Promega) diluted 16-fold into Opti-MEM was dispensed into the plates at 40 μL/well. After mixing by pipetting, plates were incubated for 10 min on the pipetting station deck. The DNA-transfection reagent complexes were then added to plates containing cells. To facilitate the screen, 10 μL of DNA-transfection reagent complexes were added in duplicates to the top 4 and bottom 4 rows, resulting in two identical 48-well arrays per plate. Plates with transfected cells were incubated for 18–20 h at 37 °C/5% CO2. A screen of each tracer across the entire library using two different concentrations requires duplicate plates of transfected cells. Depending on the number of tracers being screened, transfections can be scaled up using the same ratios. The next day, for each tracer, four 20× screening solutions in tracer dilution buffer (Promega) were prepared: two duplicates at final concentration of 20 μM and two duplicates at a final concentration of 2 μM. A competing unmodified compound was added to one of each duplicate at a final concentration of 400 μM. The four resulting solutions were diluted 4-fold in Opti-MEM without serum or phenol red to generate 5× solutions (5 µM and 0.5 µM tracer +/− 100 μM competing compound). To screen the library, a BioTek MultiFlo FX liquid dispenser was used to dispense 22.5 µL of tracer solution to the top 4 rows and 22.5 µL tracer + competing compound solution to the 4 bottom rows. Plates were briefly mixed on an orbital shaker and incubated for 1.5 h at room temperature. […]

HTR2A = molecular target: T2, HTR2A (Homo sapiens, UniProt P28223); assay: NanoBRET screen HiBiT-HTR2A in HEK293; format: binding
T2 construct: purchased Promega (in-house HiBiT-GPCR construct library, NanoBRET)
T2 sequence (P28223 whole entry): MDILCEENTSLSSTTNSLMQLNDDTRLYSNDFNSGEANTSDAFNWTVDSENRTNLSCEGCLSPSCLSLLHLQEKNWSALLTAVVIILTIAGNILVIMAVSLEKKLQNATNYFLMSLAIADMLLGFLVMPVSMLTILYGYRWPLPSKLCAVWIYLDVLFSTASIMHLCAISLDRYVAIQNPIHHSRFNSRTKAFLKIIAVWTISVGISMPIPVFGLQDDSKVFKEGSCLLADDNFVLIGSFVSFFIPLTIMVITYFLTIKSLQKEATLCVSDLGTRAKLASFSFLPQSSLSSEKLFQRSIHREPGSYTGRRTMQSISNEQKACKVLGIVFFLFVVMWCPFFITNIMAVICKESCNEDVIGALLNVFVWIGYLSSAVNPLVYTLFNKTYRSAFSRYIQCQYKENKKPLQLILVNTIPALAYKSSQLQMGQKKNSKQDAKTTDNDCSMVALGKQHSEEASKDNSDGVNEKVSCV

Compound: Cc1nc2n(c(=O)c1CCN1CCC(c3noc4cc(F)ccc34)CC1)CCCC2OC(=O)NCCOCCOCCOCCOCCNC(=O)CCc1ccc2n1[B-](F)(F)[N+]1=C(c3ccc[nH]3)C=CC1=C2 (stereo not shown) [Risperidone-2-NB590]
NanoBRET Fold Response (XCR1; XCR1, tracer 0.1μM): 0.97
NanoBRET Fold Response (XCR1; XCR1, tracer 1μM): 0.88

NanoBRET Fold Response (HTR2A; HTR2A, 0.1μM): 0.96
NanoBRET Fold Response (HTR2A; HTR2A, 1μM): 1.01
NanoBRET Fold Response (XCR1; XCR1, 0.1μM): 1.04
NanoBRET Fold Response (XCR1; XCR1, 1μM): 1.00
Compound: CCOC(=O)c1cc(C#N)c(N2CCC(C(=O)NS(=O)(=O)Cc3ccccc3/C=C/C(=O)NCCNC(=O)CCc3ccc4n3[B-](F)(F)[N+]3=C(c5ccc[nH]5)C=CC3=C4)CC2)nc1C [AZD1283-1-NB590]

Compound: Cc1cc2c(s1)Nc1ccccc1N=C2N1CCN(CCCNC(=O)CCOCCOCCOCCOCCNC(=O)CCc2ccc3n2[B-](F)(F)[N+]2=C(c4ccc[nH]4)C=CC2=C3)CC1 [Olanzapine-a-2-NB590]
NanoBRET Fold Response (XCR1; XCR1, tracer 0.1μM): 0.88
NanoBRET Fold Response (XCR1; XCR1, tracer 1μM): 1.27

Compound: COc1ccccc1N1CCN(CCCCN2C(=O)c3ccc(CNC(=O)CCOCCNC(=O)c4ccc(CNC(=O)CCc5ccc6n5[B-](F)(F)[N+]5=C(c7ccc[nH]7)C=CC5=C6)cc4)cc3C2=O)CC1 [NAN-190-3-NB590]
NanoBRET Fold Response (HTR2A): 1.14 and 1.13
NanoBRET Fold Response (XCR1; XCR1, tracer 0.1μM): 1.29
NanoBRET Fold Response (XCR1; XCR1, tracer 1μM): 1.34

Compound: CC(C)N(CC[C@H](c1ccccc1)c1cc(CCNC(=O)CCOCCOCCOCCOCCNC(=O)CCc2ccc3n2[B-](F)(F)[N+]2=C(c4ccc[nH]4)C=CC2=C3)ccc1O)C(C)C [Tolterodine-2-NB590]
NanoBRET Fold Response (HTR2A; HTR2A, tracer 0.1μM): 1.05
NanoBRET Fold Response (HTR2A; HTR2A, tracer 1μM): 1.11
NanoBRET Fold Response (XCR1; XCR1, tracer 0.1μM): 0.81
NanoBRET Fold Response (XCR1; XCR1, tracer 1μM): 1.17

Compound: CN(C)CCC=C1c2ccccc2CCc2ccc(C(=O)NCCNC(=O)CCOCCOCCOCCOCCNC(=O)CCc3ccc4n3[B-](F)(F)[N+]3=C(c5ccc[nH]5)C=CC3=C4)cc21 [Amitriptyline-b-2-NB590]
NanoBRET Fold Response (XCR1; tracer at 0.1μM, listed as amitriptyline-b-2-NB590): 0.92
NanoBRET Fold Response (XCR1; tracer at 1μM, listed as amitriptyline-b-2-NB590): 0.83

Compound: O=C(CCOCCOCCOCCOCCNC(=O)CCc1ccc2n1[B-](F)(F)[N+]1=C(c3ccc[nH]3)C=CC1=C2)NCCCN1CCN(C2=Nc3ccccc3Oc3ccc(Cl)cc32)CC1 [Loxapine-a-2-NB590]
NanoBRET Fold Response (HTR2A): 1.71 and 1.28
NanoBRET Fold Response (XCR1; XCR1, tracer 0.1μM): 0.44
NanoBRET Fold Response (XCR1; XCR1, tracer 1μM): 0.91

Compound: CN(C)CCC=C1c2ccccc2CCc2ccc(C(=O)NCCNC(=O)CCOCCOCCOCCOCCNC(=O)CCc3ccc4n3[B-](F)(F)[N+]3=C(c5ccc[nH]5)C=CC3=C4)cc21 [Amitriptyline-a-2-NB590]
NanoBRET Fold Response (XCR1; tracer at 0.1μM): 1.05
NanoBRET Fold Response (XCR1; tracer at 1μM): 0.96

Compound: O=C(CCc1ccc2n1[B-](F)(F)[N+]1=C(c3ccc[nH]3)C=CC1=C2)NCCOCCOCCNC(=O)OCCOCCN1CCN(C2=Nc3ccccc3Sc3ccccc32)CC1 [Quetiapine-a-2-NB590]
NanoBRET Fold Response (XCR1; XCR1, tracer 0.1μM): 1.07
NanoBRET Fold Response (XCR1; XCR1, tracer 1μM): 1.04

Compound: COc1ccccc1N1CCN(CCCCN2C(=O)c3ccc(CNC(=O)CCOCCOCCOCCOCCNC(=O)CCc4ccc5n4[B-](F)(F)[N+]4=C(c6ccc[nH]6)C=CC4=C5)cc3C2=O)CC1 [NAN-190-2-NB590]
NanoBRET Fold Response (HTR2A): 0.97
NanoBRET Fold Response (XCR1; XCR1, tracer 0.1μM): 1.44

Compound: CN1CCN(C2=Nc3cc(Cl)ccc3N(CC(=O)NCCOCCOCCOCCOCCNC(=O)CCc3ccc4n3[B-](F)(F)[N+]3=C(c5ccc[nH]5)C=CC3=C4)c3ccccc32)CC1 [Clozapine-c-2-NB590]
NanoBRET Fold Response (XCR1; XCR1, 0.1μM tracer): 0.99
NanoBRET Fold Response (XCR1; XCR1, 1μM tracer): 1.03

NanoBRET Fold Response (HTR2A; HTR2A, other tracers/Aminopotentidine (unmodified), 0.1μM): 1.10
NanoBRET Fold Response (HTR2A; HTR2A, other tracers/Aminopotentidine (unmodified), 1μM): 1.07
Compound: N#CN/C(=N\CCNC(=O)c1ccc(N)cc1)NCCCOc1cccc(CN2CCCCC2)c1 [Aminopotentidine (unmodified)]

NanoBRET Fold Response (HTR2A; 0.1μM tracer): 0.92
NanoBRET Fold Response (HTR2A; 1μM tracer): 1.02
NanoBRET Fold Response (XCR1; 0.1μM tracer): 0.42
NanoBRET Fold Response (XCR1; 1μM tracer): 0.90
Compound: COc1ccc2[nH]c(-c3ccc(CNC(=O)CCOCCOCCOCCOCCNC(=O)CCc4ccc5n4[B-](F)(F)[N+]4=C(c6ccc[nH]6)C=CC4=C5)cc3)c(CCNC(C)=O)c2n1 [AzomelatoninICO9-2-NB590]

NanoBRET Fold Response (HTR2A; HTR2A, 0.1μM tracer): 2.26
NanoBRET Fold Response (HTR2A; HTR2A, 1μM tracer): 2.01
NanoBRET Fold Response (XCR1; XCR1, 0.1μM tracer): 1.01
NanoBRET Fold Response (XCR1; XCR1, 1μM tracer): 0.98
Compound: O=C(CCOCCOCCOCCOCCNC(=O)CCc1ccc2n1[B-](F)(F)[N+]1=C(c3ccc[nH]3)C=CC1=C2)NCCCN1CCN(C2=Nc3cc(Cl)ccc3Nc3ccccc32)CC1 [Clozapine-a-2-NB590]

Compound: CCCn1c(=O)c2[nH]c(-c3ccc(OCC(=O)NCCNC(=O)CCOCCNC(=O)c4ccc(CNC(=O)CCc5ccc6n5[B-](F)(F)[N+]5=C(c7ccc[nH]7)C=CC5=C6)cc4)cc3)nc2n(CCC)c1=O [XAC-3-NB590]
NanoBRET Fold Response (HTR2A; HTR2A, tracer 0.1μM): 0.99
NanoBRET Fold Response (HTR2A; HTR2A, tracer 1μM): 1.10
NanoBRET Fold Response (XCR1; XCR1, tracer 0.1μM): 0.87
NanoBRET Fold Response (XCR1; XCR1, tracer 1μM): 0.98

Compound: O=C(CCc1ccc2n1[B-](F)(F)[N+]1=C(c3ccc[nH]3)C=CC1=C2)NCc1ccc(C(=O)NCCOCCOCCNCC(O)COc2cccc3ccccc23)cc1 (stereo not shown) [Propranolol-3-NB590]
NanoBRET Fold Response (XCR1; XCR1, 0.1μM): 1.02
NanoBRET Fold Response (XCR1; XCR1, 1μM): 0.97

Compound: O=C(CCc1ccc2n1[B-](F)(F)[N+]1=C(c3ccc[nH]3)C=CC1=C2)NCc1ccc(C(=O)NCCOCCC(=O)N[C@@H]2CC[C@@]3(O)[C@H]4Cc5ccc(O)c6c5[C@@]3(CCN4CC3CC3)[C@H]2O6)cc1 [Naltrexone-3-NB590]
NanoBRET Fold Response (XCR1; XCR1, tracer 0.1μM): 0.97
NanoBRET Fold Response (XCR1; XCR1, tracer 1μM): 0.61

Compound: CN(CCC=C1c2ccccc2CCc2ccccc21)C(=O)CCOCCOCCOCCOCCNC(=O)CCc1ccc2n1[B-](F)(F)[N+]1=C(c3ccc[nH]3)C=CC1=C2 [Amitriptyline-e-2-NB590]
NanoBRET Fold Response (XCR1; tracer at 1μM): 0.99

NanoBRET Fold Response (HTR2A; HTR2A, tracer 0.1μM): 0.98
NanoBRET Fold Response (HTR2A; HTR2A, tracer 1μM): 1.02
NanoBRET Fold Response (XCR1; XCR1, tracer 0.1μM): 1.11
NanoBRET Fold Response (XCR1; XCR1, tracer 1μM): 0.87
Compound: N#CN=C(NCCCOc1cccc(CN2CCCCC2)c1)NCCNC(=O)CCOCCOCCOCCOCCNC(=O)CCc1ccc2n1[B-](F)(F)[N+]1=C(c3ccc[nH]3)C=CC1=C2 [Aminopotentidine-2-NB590]

NanoBRET Fold Response (HTR2A; 0.1μM tracer): 1.06
NanoBRET Fold Response (HTR2A; 1μM tracer): 1.06
NanoBRET Fold Response (XCR1; 0.1μM tracer): 1.33
NanoBRET Fold Response (XCR1; 1μM tracer): 1.18
Compound: COc1ccc2c(n1)c(CCNC(C)=O)cn2CCNC(=O)CCc1ccc2n1[B-](F)(F)[N+]1=C(c3ccc[nH]3)C=CC1=C2 [Azamelatonin-1-NB590]

Compound: CC(C)N(CC[C@H](c1ccccc1)c1cc(CCNC(=O)c2ccc(CNC(=O)CCc3ccc4n3[B-](F)(F)[N+]3=C(c5ccc[nH]5)C=CC3=C4)cc2)ccc1O)C(C)C [Tolterodine-BZ-NB590]
NanoBRET Fold Response (HTR2A; HTR2A, tracer 0.1μM): 0.93
NanoBRET Fold Response (HTR2A; HTR2A, tracer 1μM): 1.04
NanoBRET Fold Response (XCR1; XCR1, tracer 0.1μM): 0.80
NanoBRET Fold Response (XCR1; XCR1, tracer 1μM): 0.95

Compound: CN1CCN(C2=Nc3cc(Cl)ccc3Nc3ccc(CNC(=O)CCOCCOCCOCCOCCNC(=O)CCc4ccc5n4[B-](F)(F)[N+]4=C(c6ccc[nH]6)C=CC4=C5)cc32)CC1 [Clozapine-b-2-NB590]
NanoBRET Fold Response (XCR1; XCR1, 0.1μM tracer): 0.94
NanoBRET Fold Response (XCR1; XCR1, 1μM tracer): 1.18

From paper PMC8151276, “An Integrated Approach toward NanoBRET Tracers for Analysis of GPCR Ligand Engagement” (Molecules, 2021)
